Columns and labels:
Solubility test in water = assay type: physicochemical; settings: deionized water, thermodynamic from solid
Protocol: For the solubility test in water, a sample of less than 10 mg was first precisely weighed and taken, and placed into a vial, to which 50 μl of deionized water was added, shaking for 30 seconds and ultrasonic shaking for 1 minute were carried out, and these processes were repeated several times. The water solubility was calculated by measuring the amount of water used to dissolve all the samples.

[1] = Stability confirmation test (impurity formation during storage under severe conditions, liquid chromatography); assay type: physicochemical
Protocol: The stability test was carried out for the acid addition salts prepared in the Examples to evaluate the degree to which impurities were formed during storage under severe conditions (moisture-proof condition and high-humidity exposure condition). The results of the stability test under the moisture-proof condition were shown in Table 2 below, and the results of the stability test under the high-humidity exposure condition were shown in Table 3 below. For the stability test, vials containing 10 mg of each sample which was precisely weighed and taken were prepared in the planned quantity, and they were stored by dividing into the moisture-proof condition (60° C. and less than 10% relative humidity) and under the high-humidity exposure condition (60° C. and 95% relative humidity). However, under the high-humidity exposure condition, a stopper of the vial was not used to keep so that the sample is in sufficient contact with a moisture in the air. At a fixed point of time after the initiation of the test, two vials per point of time were taken (number of samples per test n=2). 10 ml of methanol was added to each vial to dissolve the sample, which was then centrifuged. The resulting supernatant was analyzed using a liquid chromatography. The peak area was determined by integration for all detected peaks, and the relative peak area for the main component and the total impurity was calculated and expressed as an average value.

[2] = high-humidity exposure condition (60° C. and 95% relative humidity), After 1 week
[3] = high-humidity exposure condition (60° C. and 95% relative humidity), After 2 weeks
[4] = high-humidity exposure condition (60° C. and 95% relative humidity), After 4 weeks
[5] = high-humidity exposure condition (60° C. and 95% relative humidity), Initial
[6] = moisture-proof condition (60° C. and less than 10% relative humidity), After 2 weeks
[7] = moisture-proof condition (60° C. and less than 10% relative humidity), After 4 weeks
[8] = moisture-proof condition (60° C. and less than 10% relative humidity), Initial

Row | solubility (Solubility test in water) | Peak area of main component (%) [1, 2] | Peak area of total impurities (%) [1, 2] | Peak area of main component (%) [1, 3] | Peak area of total impurities (%) [1, 3] | Peak area of main component (%) [1, 4] | Peak area of total impurities (%) [1, 4] | Peak area of main component (%) [1, 5] | Peak area of total impurities (%) [1, 5] | Peak area of main component (%) [1, 6] | Peak area of total impurities (%) [1, 6] | Peak area of main component (%) [1, 7] | Peak area of total impurities (%) [1, 7] | Peak area of main component (%) [1, 8] | Peak area of total impurities (%) [1, 8] | SMILES
1 | 6900 µg/mL | 99.48% | 0.52% | 99.43% | 0.57% | 99.23% | 0.77% | 99.52% | 0.48% | 99.54% | 0.46% | 99.48% | 0.52% | 99.52% | 0.48% | CNCc1cn(S(=O)(=O)c2cccc(F)c2)c(-c2ccc(F)cc2F)c1OC.O=C(O)C(O)C(O)C(=O)O [Example 3, 1-(5-(2,4-difluorophenyl)-1-((3-fluorophenyl)sulfonyl)-4-methoxy-1H-pyrrol-3-yl)-N-methylmethanamine tartrate]
2 | 1730 to 2600 µg/mL | 99.40% | 0.60% | 99.32% | 0.68% | 99.30% | 0.70% | 99.38% | 0.62% | 99.36% | 0.64% | 99.37% | 0.63% | 99.38% | 0.62% | CNCc1cn(S(=O)(=O)c2cccc(F)c2)c(-c2ccc(F)cc2F)c1OC.O=C(O)/C=C/C(=O)O [Example 4, 1-(5-(2,4-difluorophenyl)-1-((3-fluorophenyl)sulfonyl)-4-methoxy-1H-pyrrol-3-yl)-N-methylmethanamine fumarate]
3 | < 160 µg/mL |  |  |  |  |  |  |  |  |  |  |  |  |  |  | CNCc1cn(S(=O)(=O)c2cccc(F)c2)c(-c2ccc(F)cc2F)c1OC [Preparation Example, 1-(5-(2,4-difluorophenyl)-1-((3-fluorophenyl)sulfonyl)-4-methoxy-1H-pyrrol-3-yl)-N-methylmethanamine]

Further lines, the compound ahead of its results:

Row | SMILES | solubility (Solubility test in water) | Peak area of main component (%) [1, 2] | Peak area of total impurities (%) [1, 2] | Peak area of main component (%) [1, 3] | Peak area of total impurities (%) [1, 3] | Peak area of main component (%) [1, 4] | Peak area of total impurities (%) [1, 4] | Peak area of main component (%) [1, 5] | Peak area of total impurities (%) [1, 5] | Peak area of main component (%) [1, 6] | Peak area of total impurities (%) [1, 6] | Peak area of main component (%) [1, 7] | Peak area of total impurities (%) [1, 7] | Peak area of main component (%) [1, 8] | Peak area of total impurities (%) [1, 8]
4 | CNCc1cn(S(=O)(=O)c2cccc(F)c2)c(-c2ccc(F)cc2F)c1OC.Cl [Example 1, 1-(5-(2,4-difluorophenyl)-1-((3-fluorophenyl)sulfonyl)-4-methoxy-1H-pyrrol-3-yl)-N-methylmethanamine hydrochloride] | 11100 µg/mL | 99.81% | 0.19% | 99.80% | 0.20% | 99.80% | 0.20% | 99.82% | 0.18% | 99.80% | 0.19% | 99.80% | 0.20% | 99.82% | 0.18%
5 | CNCc1cn(S(=O)(=O)c2cccc(F)c2)c(-c2ccc(F)cc2F)c1OC.O=C(O)CCC(=O)O [Example 2, 1-(5-(2,4-difluorophenyl)-1-((3-fluorophenyl)sulfonyl)-4-methoxy-1H-pyrrol-3-yl)-N-methylmethanamine succinate] | 7200 µg/mL | 99.56% | 0.44% | 99.53% | 0.47% | 99.47% | 0.54% | 99.55% | 0.45% | 99.61% | 0.39% | 99.55% | 0.45% | 99.55% | 0.45%

Reference: US10487053B2, “Acid addition salt of 1-(5-(2,4-difluorophenyl)-1-((3-fluorophenyl)sulfonyl)-4-methoxy-1H-pyrrol-3-yl)-N-methylmethanamine” (Daewoong Pharmaceutical Co., Ltd., priority 2016, dated 2019)
